Target: T1, AhR (Homo sapiens, UniProt P35869)
T1 sequence (P35869 11-848): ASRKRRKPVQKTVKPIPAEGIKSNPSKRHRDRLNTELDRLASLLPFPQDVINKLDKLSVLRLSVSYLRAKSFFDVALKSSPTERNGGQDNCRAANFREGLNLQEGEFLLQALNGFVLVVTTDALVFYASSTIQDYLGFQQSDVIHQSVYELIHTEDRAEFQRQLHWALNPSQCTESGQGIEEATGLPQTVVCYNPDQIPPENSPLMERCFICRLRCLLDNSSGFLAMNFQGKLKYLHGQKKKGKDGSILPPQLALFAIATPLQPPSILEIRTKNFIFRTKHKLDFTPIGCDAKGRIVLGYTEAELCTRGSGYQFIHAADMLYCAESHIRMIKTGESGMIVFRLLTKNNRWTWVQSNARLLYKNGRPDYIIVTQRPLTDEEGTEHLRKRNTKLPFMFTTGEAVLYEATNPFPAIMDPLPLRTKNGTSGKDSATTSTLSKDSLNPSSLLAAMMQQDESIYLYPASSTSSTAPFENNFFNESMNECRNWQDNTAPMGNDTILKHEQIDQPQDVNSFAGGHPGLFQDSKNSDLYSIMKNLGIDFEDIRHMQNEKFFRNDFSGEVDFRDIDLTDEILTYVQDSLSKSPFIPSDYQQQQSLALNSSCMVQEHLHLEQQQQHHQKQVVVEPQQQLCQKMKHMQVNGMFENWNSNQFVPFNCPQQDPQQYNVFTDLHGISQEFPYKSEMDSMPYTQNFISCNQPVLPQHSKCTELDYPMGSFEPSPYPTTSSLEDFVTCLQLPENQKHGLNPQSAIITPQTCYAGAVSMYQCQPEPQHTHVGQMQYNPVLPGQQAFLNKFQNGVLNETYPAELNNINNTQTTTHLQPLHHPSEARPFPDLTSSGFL
Test: AhR inhibitory activity experiment, in vitro assay 1: HepG2-Lucia AhR cells, Lucia luciferase reporter (QUANTI-Luc)
Type: cell-based
Conditions: 24 hours incubation at 37° C., Lucia luciferase in supernatant, read-out: AhR inhibitory activity C50
Method: Test Example: AhR Inhibitory Activity Experiment
When QUANTI-Luc™ (InvivoGen Company) testing reagents are used, AhR gene signaling pathways can be studied by monitoring the activity of Lucia luciferase in the cell culture supernatant.
In Vitro Assay 1: Assay on Inhibitory Activity in Human Cell Lines
Adherent cell layers of HepG2-Lucia™ AhR cells in a logarithmic growth phase were washed with PBS, and then the cells were isolated with trypsin. The isolated cells were centrifuged at 1000 RPM for 5 minutes, the supernatant was removed, and the cells were re-suspended with a test medium by 1.25×10^5 cells/ml.
20,000 cells were added to each well of a 96-well plate, and the 96-well plate was placed in a CO2 incubator to incubate the cells at 37° C. for 24 hours in the absence (negative control) or presence of test compounds with gradient increasing concentrations (typical dilutions: 169 pmol/L, 0.5 nmol/L, 1.5 nmol/L; 4.6 nmol/L, 13.7 nmol/L, 41 nmol/L, 123 nmol/L, 370 nmol/L, 1.1 μmol/L, 3.3 μmol/L and 10 μmol/L, in triplicate).
The 20 μl/well cell supernatant was transferred to a black 96-well plate, a 50 μL/well QUANTI-Luc™ solution was added, and the activity of Lucia luciferase was measured on a multifunctional ELISA reader Spark 10 M (Tecan Company) through a QUANTI-Luc™ luciferase assay system.
Experimental results are shown in Table 1, wherein for IC50 values, “++++” represents IC50<0.05 μM; “+++” represents IC50 between 0.05 μM and 0.2 μM; “++” represents IC50 between 0.2 μM and 1.0 μM; and “+” represents IC50>1.0 μM.

Row | Compound | IC50 [nM]
1 | C[C@H](NC(=O)c1cc(-c2ccc(Cl)cc2)nc(-c2cnn(C)c2)n1)c1ccn2ncnc2c1 [Compound 17] | < 50
2 | C[C@H](NC(=O)c1cc(-c2cnn(C)c2)nc(-c2cnn(C)c2)n1)c1ccnc(F)c1 [Compound 48, (S)-6-(1-methyl-1H-pyrazol-4-yl)-N-(1-(2-fluoro-4-pyridine)ethyl)-2-(1-methyl-1H-pyrazol-4-yl)pyrimidine-4-formamide] | > 1000
3 | Cn1cc(-c2nc(C(=O)N[C@H]3CCCc4ncccc43)cc(-c3ccc(Cl)cc3)n2)cn1 [Compound 23, (S)-6-(4-chlorophenyl)-N-((S)-5,6,7,8-tetrahydro-6H-quinol-5-yl)-2-(1-methyl-1H-pyrazol-4-yl)pyrimidine-4-formamide] | < 50
4 | COc1ccc([C@H](C)NC(=O)c2cc(-c3ccc(Cl)cc3)nc(-c3cnn(C)c3)n2)cc1F [Compound 8, (S)-6-(4-chlorophenyl)-N-(1-(3-fluoro-4-methoxyphenyl)ethyl)-2-(1-methyl-1H-pyrazol-4-yl)pyrimidine-4-formamide] | < 50
5 | Cn1cc(-c2nc(C(=O)N[C@H]3CCc4cc(C#N)ccc43)cc(-c3ccc(Cl)cc3)n2)cn1 [Compound 28, (S)-6-(4-chlorophenyl)-N-(5-cyano-(2,3-dihydro)-(−)-1-yl-2-indene)-2-(1-methyl-1H-pyrazol-4-yl)pyrimidine-4-formamide] | < 50
6 | C[C@H](NC(=O)c1cc(-c2ccc(Cl)cc2)nc(-c2cnn(C)c2)n1)c1ccncc1 [Compound 4, (S)-6-(4-chlorophenyl)-N-(1-(4-pyridine)ethyl)-2-(1-methyl-1H-pyrazol-4-yl)pyrimidine-4-formamide] | < 50
7 | CNC(=O)c1ccc([C@H](C)NC(=O)c2cc(-c3ccc(Cl)cc3)nc(-c3cnn(C)c3)n2)cc1F [Compound 52, (S)-6-(4-chlorophenyl)-N-(1-(3-fluoro-4-(methylaminoformyl)phenyl)ethyl)-2-(1-methyl-1H-pyrazol-4-yl)pyrimidine-4-formamide] | < 50
8 | Cn1cc(-c2nc(C(=O)NC3(C)CCN(CC#N)CC3)cc(-c3ccc(Cl)cc3)n2)cn1 [Compound 46, 6-(4-chlorophenyl)-N-(1-(cyanomethyl)-4-methylpiperidin-4-yl)-2-(1-methyl-1H-pyrazol-4-yl)pyrimidine-4-formamide] | < 50
9 | Cn1cc(-c2nc(C(=O)N[C@H]3CCc4ccc(F)cc43)cc(-c3ccc(Cl)cc3)n2)cn1 [Compound 21, (S)-6-(4-chlorophenyl)-N-((S)-(6-fluoro-2,3-dihydro)-(−)-1-yl-2-indene)-2-(1-methyl-1H-pyrazol-4-yl)pyrimidine-4-formamide] | 50 to 200
10 | C[C@H](NC(=O)c1cc(-c2ccc(Cl)cc2)nc(-c2cnn(C3CC3)c2)n1)c1ccnc(F)c1 [Compound 39, (S)-6-(4-chlorophenyl)-N-(1-(2-fluoro-4-pyridine)ethyl)-2-(1-cyclopropylpyrazol-4-yl)pyrimidine-4-formamide] | > 1000
11 | C[C@H](NC(=O)c1cc(-c2ccc(C(F)(F)F)cc2)nc(-c2cnn(C)c2)n1)c1ccnc(F)c1 [Compound 33, (S)-6-(4-trifluoromethylphenyl)-N-(1-(2-fluoro-4-pyridine)ethyl)-2-(1-methyl-1H-pyrazol-4-yl)pyrimidine-4-formamide] | < 50

From patent US12668586B2, “AhR inhibitor, use thereof, and preparation method therefor” (CHONGQING PHARSCIN INNOBIO CO., LTD., priority 2021, dated 2026)
